The text below walks through data of patent EP0124925A1, “Derivatives of d-2-(6-methoxy-2-naphthyl)-propionic acid having therapeutical activity, process for their preparation and pharmaceutical compositions containing them” (FARMA RESA SrL, priority 1983, dated 1984).

Where a name gives a salt, the structure may show the parent alone.

The test system of one data set is Swiss male albine mice. Briefly: acetic acid induced stretching or writhing inhibition test (analgesic activity). In kind it is in vivo. As for the experimental part:
This test was carried out in Swiss male albine mice, having a body weight of 30-40 g through the "stretching or writhing" inhibition test, as induced by acetic acid, the test being carried out in a manner per se known from the literature.

The nature of data set [1]: mucolithic activity: viscosity of expectorate. The note with it: 0.05M, one hour incubation at 37°C. As for the experimental part:
This test was carried out, in the manner known from the literature, in 13 ml samples of expectorate collected from hospitalized patients, and stored in a freezer at -20°C until the testing time.
At the tested concentration of the compound undergoing the experiment (0.05M) a viscosity reduction of 16% (29% to 13%) was found. ^7

Data set [2] concerns Sprague-Dawaley male rats. Briefly: carrageenin induced oedema test (anti-inflammatory activity). The note with it: for ED33: Rattus norvegicus, carrageenin oedema inhibition. In kind it is in vivo. As for the experimental part: This activity has been evaluated for the NXTP compound by the carrageenin induced oedema test, carried out in the manner known in the literature, in Sprague-Dawaley male rats, having a body weight of 180-200 g, the NXTP being administered to groups of 3 animals each at the dosages of 50, 100, 200 and 400 mg/kg, the results
being evalutaed in comparison with a control group.
Since in no caso an inhibition rate of 50% was attained, the value of ED 33 was calculated, it being 759 rng/kg (0,651 mM/kg).

A further data set concerns Sprague-Dawley male,rats. The experiment in a line: yeast induced hyperpyrexy test (antipyretic activity). In kind it is in vivo. Conditions: Rattus norvegicus, tested dosages 100, 200 and 400 mg/kg. As for the experimental part:
This test has been carried out in the manner known from the literature in Sprague-Dawley male,rats, having a body weight of 190-220g, which were selected according to the rectal temperature which was of between 37.0 and 37.7°C.
The hyperpyrexy was induced by subcutaneous injection of 2.0 ml of a 7.5% suspension of yeast as prepared at the moment.
The tested dosages were 100, 200 and 400 mg/kg and the found ED33 value was 802 mg/kg.

A further data set is described as follows: solubility in water. In kind it is physicochemical.

In the data set on Swiss male albine mice (Mus musculus, sc, inhibition of contorsions induced by acetic acid, subcutaneous route, tested doses 50, 100 and 200 mg/kg), `COc1ccc2cc(C(C)C(=O)SC(C)C(=O)NCC(=O)O)ccc2c1` (racemic) [NXTP, propionylerytrhomycin salt of DL-2-(6-methoxy-2-napthyl)-propionyl-alpha-thio-propionylglycine] came in with an ED50 of 400 mg/kg. The “inhibition of the number of contorsions (dose dependence)” value in the data set with Swiss male albine mice (doses 50, 100 and 200 mg/kg by subcutaneous route) is “in a rate proportional to the administered doses”. In addition, the “viscosity reduction (net of the 13% reduction with physiological solution)” value in data set [1] is reported as 16%. Besides, the “viscosity reduction (total)” value in data set [1] was 29%. Moreover, the ED33 was 651 µmol/kg in data set [2] (same value in molar unit); 759 mg/kg in data set [2] (tested dosages 50, 100, 200 and 400 mg/kg, calculated because 50% inhibition was not attained); 802 mg/kg with Sprague-Dawley male,rats. Further, the “oedema inhibition (dose dependence)” value in data set [2] (dosages 50, 100, 200 and 400 mg/kg, versus control group) is on record as “causes the oedema to be inhibited proportionally to the administered dose”. The molecule further came in with an inhibition rate in data set [2] (oedema inhibition at 50, 100, 200 and 400 mg/kg, 50% attained in no case) of less than 50%.
For `COc1ccc2cc(C(C)C(=O)SC(C)C(=O)NCC(=O)O)ccc2c1` (single isomer, unassigned) [L(+)-lysine salt of the DL-2-(6-methoxy-2-napthyl)-alpha- th] [L(+)lysine salt of DL-2-(6-methoxy-2-napthyl)-propionyl-alpha-thio-propionylglycine acid], the solubility in water result in “solubility in water” is on record as “perfectly soluble in water”.
With `COc1ccc2cc(C(C)C(=O)SC(C)C(=O)NCC(=O)O)ccc2c1` (single isomer, unassigned) [arginine crystalline product, Arginine salt of DL-2-(6-methoxy-2-napthyl)propionyl-alpha-thio-propionylglycine], the solubility in water result in “solubility in water” is reported as “soluble in water”. In “solubility in water” (pH of the product dissolved in water), this molecule came in with a pH of 7.3.
